Tests used:
[1] = Solubility in water; format: physicochemical
[2] = Dissolution test (paddle method, Japanese Pharmacopoeia); format: physicochemical; conditions: summary of Test Example 1
Protocol: Thus, the concentrations of the compound a after 5, 10, 15, 30, 45 and 60 minutes were measured. The sample solution collected at each time point was filtered through a membrane filter made of PTFE (DISMIC-25HP manufactured by Toyo Roshi Kaisha, Ltd.) having a pore size of 0.45 μm, and was analyzed by a high performance liquid chromatographic method using a reversed phase column (manufactured by Nomura Chemical Co., Ltd.; Develosil ODS-HG-5). Thus, the dissolution rates were calculated.

solubility in water [1]: 0.05 % (W/V)
dissolubility, result in words [2]: hardly dissolved
SMILES: CSc1cc(C)nc(SC)c1NC(=O)CN1CCN(CCSc2nc3ccccc3[nH]2)CC1 [compound a, 2-[4-[2-(Benzimidazol-2-ylthio)ethyl]piperazin-1-yl]-N-[2,4-bis(methylthio)-6-methyl-3-pyridyl]acetamide]

Source: patent US20120289517A1, “SOLID PHARMACEUTICAL COMPOSITION FOR ORAL ADMINISTRATION” (Kowa Co., Ltd., priority 2009, published 2012)
